In patent US6998394B2, “Process for isolating physalins from plants and pharmaceutical compositions containing physalins” (Fundacao Oswaldo Cruz - FIOCRUZ, priority 1999, dated 2006):
Converted amounts (≈) assume the structure as drawn.

How the values were obtained:
[1] = test system: trypomastigotes of Trypanosoma cruzi (Y strain); assay: In vitro antitrypanosomial activity against T. cruzi trypomastigotes (count of viable parasites); assay type: cell-based
Description: In vitro studies using pure physalins are carried out with trypomastigotes of Trypanosoma cruzi.
T. cruzi Y strain is maintained in MK2 strain cell culture in a RPMI medium+10% bovine fetal serum, at 37° C., under 5% CO2. This material is centrifuged during 15 minutes at 1500 rpm. Afterwards, the material is maintained in rest at 37° C. for 2 hours. The supernatant is centrifuged again during 30 minutes at 3000 rpm. The trypomastigotes (5×10^5/well) in RPMI medium with 10% bovine fetal serum and antibiotic are incubated in wells with different concentrations of physalin B or physalin D. After 24–48 hours, the viable parasites maintained at a temperature of 4° C. are counted. Each experiment was carried out in triplicate.

[2] = test system: promastigotes of Leishmania amazonensis; assay: In vitro antileishmanicidal activity on promastigotes (MTT viability); assay type: cell-based; settings: 20 μg/ml
Description: Stationary phase promastigotes of Leishmania amazonensis were obtained from parasite cultures in LIT medium with 10% bovine fetal serum. The assays were standardized in plates with 96 wells. Promastigotes were plaque harbored, in triplicate, in 100 μl of LIT medium. 10 μl of physalin B solution and 10 μl of a positive control (Amphotericin B) are added to the wells. Several dilutions were used. Parasite viability was determined after incubation with MTT by reading the absorbance at 570 nm in ELISA Microplate.

[3] = test system: Leishmania amazonensis in peritoneal macrophages; assay: In vitro infection assay using peritoneal macrophages infected with Leishmania amazonensis; assay type: cell-based; settings: 10 μg/ml
Description: Peritoneal macrophages were incubated during 2 hours at 37° C. in 24 wells plates with laminas. After washing to remove non-bound cells, the wells were incubated with stationary phase promastigotes of Leishmania amazonensis (parasites/macrophages in a ratio of 10:1). After 18 hours, the cultures were washed to remove the free parasites. After 24 hours, physalin B solution is added to the wells. The laminas are collected, fixed with methanol and dyed with Giemsa. The infection level was determined by counting parasite quantity and the infected macrophages percentage.

[4] = test system: TNFα production by macrophages; assay: TNFα production by LPS-stimulated peritoneal macrophages (ELISA); assay type: cell-based; settings: LPS 500 ng/ml, various concentrations, supernatants 4 hours after stimulation, FIG. 3A
Description: (§1) In a first test, thyoglycollate-elicited peritoneal macrophages were stimulated with LPS (500 ng/ml) in the presence of various concentrations of physalin B. Cell-free supernatants were collected 4 hours after stimulation and tested for TNα and IL-6 production by ELISA.

[5] = test system: IL-6 production by macrophages; assay: IL-6 production by LPS-stimulated peritoneal macrophages (ELISA); assay type: cell-based; settings: LPS 500 ng/ml, various concentrations, supernatants 4 hours after stimulation, FIG. 3B
Description: as §1

[6] = test system: nitric oxide production by macrophages; assay: Nitric oxide (nitrite) production by stimulated peritoneal macrophages (Griess assay); assay type: cell-based; settings: 24 hours
Description: as §1, with “second” for “first”, “ng/ml), IFNγ (5 ng/ml), or IFNγ +LPS” for “ng/ml)”, “24” for “4”, “nitrite” for “TNα and IL-6”, “Griess assay.” for “ELISA.”
In a third test, thyoglycollate-elicited peritoneal macrophages were stimulated with LPS (500 ng/ml)+IFNγ (5 ng/ml). Physalin B (2 μg/ml) was added 0, 2, 4 and 6 hours after IFNγ+LPS stimulation. Cell-free supernatants were collected 24 hours after stimulation and tested for nitrite production by Griess assay. IFNγ+LPS was used as control.
In a fourth test, thyoglycollate-elicited peritoneal macrophages were stimulated with LPS (500 ng/ml)+IFNγ (5 ng/ml) in the presence of physalin B (2 μg/ml) or indomethacyn (1 μg/ml). Cell-free supernatants were collected 24 hours after stimulation and tested for nitrite production by Griess assay.

[7] = test system: ConA stimulated splenocytes; assay: Proliferation of ConA-stimulated splenocytes (3H thymidine uptake); assay type: cell-based, BALB/c; settings: ConA 1 μg/ml, several concentrations, FIG. 7
Description: In a fifth test, BALB/c spleen cells were stimulated with ConA (1 μg/ml) in the presence of several concentrations of physalin B. After 24 hours, cultures were pulsed with ^3H thymidine. Proliferation was assessed by measurement of thymidine uptake.

[8] = test system: IL-2 production by ConA stimulated splenocytes; assay: IL-2 production by ConA-stimulated splenocytes (ELISA); assay type: cell-based, BALB/c; settings: ConA 1 μg/ml, several concentrations, 24 hours, FIG. 8
Description: In a sixth test, BALB/c spleen cells were stimulated with ConA (1 μg/ml) in the presence of several concentrations of physalin B. Cell-free supernatants were collected 24 hours after stimulation and tested for IL-2 production by ELISA.

[9] = test system: BALB/c spleen cells or thyoglycollate-elicited peritoneal macrophages; assay: Viability of spleen cells and peritoneal macrophages (MTT); assay type: cell-based; settings: one day or three days of culturing, FIG. 9
Description: In the last test, BALB/c spleen cells or thyoglycollate-elicited peritoneal macrophages were cultured in the presence of several concentrations of physalin B. After one day (FIG. 9B) or three days (FIG. 9A) of culturing, plates were pulsed with MTT. Cell-viability was evaluated 2 hours later by optical density measuring at 570 nm.

[10] = test system: human tumors like hepatoma, cervix uteri, lung and colon cells; settings: in vivo and in vitro tests; cited from earlier work
[11] = test system: Trypanosoma brucei rhodesiense; settings: commonly used trypanocidal drug; cited from earlier work

Compound: C[C@]12C(=O)C=CCC1=CC[C@@H]1[C@@H]2CC[C@]2(O)C(=O)O[C@@]3(C)[C@H]4C[C@]5(C)[C@@H](CO[C@@]16O[C@@]32[C@H]5C6=O)C(=O)O4 [Physalin B]
- Mortality of Parasite (%) ([1]; dose 2.5 mg/ml, contact period 24 hours): 100%
- Mortality of Parasite (%) ([1]; dose 2.5 mg/ml, contact period 48 hours): 100%
- parasite mortality [2]: 100%
- in vitro reduction in the infection of peritoneal macrophages [3]: 100%
- TNFα production by macrophages [4]: inhibitory properties
- IL-6 production by macrophages [5]: inhibitory properties
- nitric oxide production, physalin B added at different times ([6]; 2 μg/ml added 0, 2, 4 and 6 hours after IFNγ+LPS stimulation, FIG. 5): time-dependence of the inhibition
- nitric oxide production by macrophages ([6]; LPS 500 ng/ml, IFNγ 5 ng/ml or IFNγ+LPS, various concentrations, FIG. 4): inhibitory properties
- nitric oxide production in the presence of indomethacyn ([6]; LPS+IFNγ, physalin B 2 μg/ml, indomethacyn 1 μg/ml, FIG. 6): addition of indomethacyn does not block the inhibition
- proliferation of ConA stimulated splenocytes (thymidine uptake) [7]: inhibits proliferation
- IL-2 production by ConA stimulated splenocytes [8]: inhibits IL-2 production
- concentrations at which non-toxic in vitro (cell viability, MTT) [9]: below 5 μg/ml

Compound: C[C@@]12C[C@H]3OC(=O)[C@@H]1CO[C@@]14O[C@]5([C@H]2C1=O)[C@@](O)(CC[C@H]1[C@H]4C[C@@H](O)[C@@]2(O)CC=CC(=O)[C@]12C)C(=O)O[C@@]35C [Physalin D]
- Mortality of Parasite (%) ([1]; dose 40 μg/ml, contact period 24 hours): 100%
- Mortality of Parasite (%) ([1]; dose 40 μg/ml, contact period 48 hours): 100%
- activity against human tumors [10]: active

Compound: C=C1C(=O)O[C@@H]2C[C@@]1(C)[C@@H]1C(=O)[C@]3(O)O[C@]14[C@@]2(C)OC(=O)[C@@]4(O)CC[C@H]1[C@H]3[C@H](O)C=C2CC=CC(=O)[C@@]21C [physalin A]
- activity against human tumors [10]: active

Compound: C[C@@]12C[C@H]3OC(=O)[C@@H]1CO[C@]14O[C@]5([C@H]2C1=O)[C@@](O)(CC[C@H]1[C@H]4C[C@H]2O[C@]24CC=CC(=O)[C@]14C)C(=O)O[C@@]35C [physalin F]
- activity against human tumors [10]: active

Compound: C[C@@H]1C(=O)O[C@@H]2C[C@@]1(C)C1C(=O)[C@]3(O)O[C@@]14[C@@](O)(CCC1C3[C@H](O)C=C3C=CCC(=O)[C@@]31C)C(=O)O[C@@]24C (stereo partly shown) [physalin L]
- activity against human tumors [10]: active

Compound: Cc1ccc(C(=O)Nc2ccc(S(=O)(=O)O)c3cc(S(=O)(=O)O)cc(S(=O)(=O)O)c23)cc1NC(=O)c1cccc(NC(=O)Nc2cccc(C(=O)Nc3cc(C(=O)Nc4ccc(S(=O)(=O)O)c5cc(S(=O)(=O)O)cc(S(=O)(=O)O)c45)ccc3C)c2)c1 [suramin]
- IC50 [11]: 0.0107 µg/mL (≈ 8.25 nM)
